Data published in patent US20120232070A1, “Use of Indole Derivatives as Nurr-1 Activators for the Application Thereof as a Medicament for the Treatment of Parkinson's Disease” (Laboratoires Fournier SA, priority 2009, published 2012).
pEC50: −log10 of the molar value.

Tests used:
[1] = molecular target: hNurr1_RXRγFL (NURR1/RXRγ heterodimer) (Homo sapiens, UniProt P43354+P48443); experiment: Transactivation assay in Cos-7 cells, NURR-1-Gal4 / RXRγ, luciferase reporter; format: cell-based; settings: for Emax: COS-7, read-out: hNurr1_RXRγFL Eff (%), efficacy in % relative to the reference XCT0135908 at 2·10^−5 M (=100%); for pEC50: Cos-7 cells, overnight incubation
Method: (§1) First, the capacity of the compounds according to the invention for acting as an activator of the heterodimers formed by the NURR-1 nuclear receptor and the RXR nuclear receptors was measured by an in vitro assay.
(§2) A transactivation assay was used as a primary screening assay. Cos-7 cells were co-transfected with a plasmid expressing a chimera of the human receptor NURR-1-Gal4, a plasmid expressing the human receptor RXR (RXRα or RXRγ receptor) and a reporter plasmid 5Gal4pGL3-TK-Luc. The transfections were performed by means of a chemical agent (Jet PEI).
(§3) The transfected cells were distributed in 384-well plates and left resting for 24 hours.
(§4) After 24 hours, the culture medium was changed. The products according to the invention were added (final concentration between 10^−4 and 3·10^−10 M) to the culture medium. After overnight incubation, luciferase expression was measured after addition of “SteadyGlo” according to the manufacturer's instructions (Promega).
(§5) 4-[[6-Methyl-2-phenyl-5-(2-prop enyl)-4-pyrimidinyl]amino]-benzoic acid (called XCT0135908, which was described in the article by Wallen-Mackenzie et al. published in Genes & Development 17, pages 3036-3047) at 2·10^−5 M (RXR agonist) was used as reference.
(§6) The levels of induction (designated by “efficiency”) were calculated relative to the baseline activity of each heterodimer. The results were expressed as a percentage of the level of induction relative to the level of induction obtained with the reference (the level of induction of the reference is arbitrarily taken to be 100%).

[2] = molecular target: hNurr1_RXRαFL (NURR1/RXRα heterodimer) (Homo sapiens, UniProt P19793+P43354); experiment: Transactivation assay in Cos-7 cells, NURR-1-Gal4 / RXRα, luciferase reporter; format: cell-based; settings: for Emax: COS-7, read-out: hNurr1_RXRαFL Eff (%), efficacy in % relative to the reference XCT0135908 at 2·10^−5 M (=100%); for pEC50: Cos-7 cells, overnight incubation
Method: as §1, §2, §3, §4, §5, §6

Chain of hNurr1_RXRγFL (NURR1/RXRγ heterodimer) (P43354 328-598): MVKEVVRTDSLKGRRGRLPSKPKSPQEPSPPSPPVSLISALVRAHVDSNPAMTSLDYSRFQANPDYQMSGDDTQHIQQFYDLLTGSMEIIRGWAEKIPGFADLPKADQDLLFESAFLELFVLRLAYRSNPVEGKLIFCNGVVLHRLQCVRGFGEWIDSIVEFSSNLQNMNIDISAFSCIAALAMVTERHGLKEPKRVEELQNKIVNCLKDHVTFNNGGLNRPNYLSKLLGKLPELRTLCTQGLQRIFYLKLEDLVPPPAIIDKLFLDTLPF
Chain of hNurr1_RXRγFL (NURR1/RXRγ heterodimer) (P48443 whole entry, the tested form may be a part): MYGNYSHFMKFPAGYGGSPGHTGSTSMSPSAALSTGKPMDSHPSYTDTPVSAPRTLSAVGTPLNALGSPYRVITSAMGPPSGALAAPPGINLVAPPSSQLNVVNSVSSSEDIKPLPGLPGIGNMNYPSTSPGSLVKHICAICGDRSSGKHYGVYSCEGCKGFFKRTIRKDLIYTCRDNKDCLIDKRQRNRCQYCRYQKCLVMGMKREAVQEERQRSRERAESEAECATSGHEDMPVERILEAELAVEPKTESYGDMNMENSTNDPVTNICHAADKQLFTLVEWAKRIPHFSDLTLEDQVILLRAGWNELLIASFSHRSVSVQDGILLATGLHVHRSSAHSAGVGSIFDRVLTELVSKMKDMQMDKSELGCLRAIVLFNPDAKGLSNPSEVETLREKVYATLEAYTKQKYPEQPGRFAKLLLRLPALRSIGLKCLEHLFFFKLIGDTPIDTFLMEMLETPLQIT
Chain of hNurr1_RXRαFL (NURR1/RXRα heterodimer) (P19793 whole entry, the tested form may be a part): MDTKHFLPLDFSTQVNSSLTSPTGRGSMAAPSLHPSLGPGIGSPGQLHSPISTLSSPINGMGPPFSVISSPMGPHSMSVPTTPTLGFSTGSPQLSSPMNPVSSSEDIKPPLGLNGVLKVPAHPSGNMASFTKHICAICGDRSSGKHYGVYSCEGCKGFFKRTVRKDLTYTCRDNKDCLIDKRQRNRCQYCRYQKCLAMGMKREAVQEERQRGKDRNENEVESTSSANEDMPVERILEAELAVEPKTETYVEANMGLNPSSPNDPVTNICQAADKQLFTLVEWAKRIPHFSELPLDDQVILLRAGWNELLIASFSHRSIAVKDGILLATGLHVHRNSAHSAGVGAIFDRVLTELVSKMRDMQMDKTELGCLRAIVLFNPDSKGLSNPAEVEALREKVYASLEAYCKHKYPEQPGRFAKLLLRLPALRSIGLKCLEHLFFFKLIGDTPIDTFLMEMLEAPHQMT
Chain of hNurr1_RXRαFL (NURR1/RXRα heterodimer) (P43354 328-598): as the sequence (P43354 328-598) above

| SMILES | Emax [1] [%] | pEC50 [1] | Emax [2] [%] | pEC50 [2] |
| --- | --- | --- | --- | --- |
| CC(C)(C)c1cccc(S(=O)(=O)n2c(Cc3ccc(C(=O)O)c(F)c3)cc3cc(C(F)(F)F)ccc32)c1 [Example 10, 2-fluoro-4-[[1-[[3-(1,1-dimethylethyl)phenyl]sulfonyl]-5-(trifluoromethyl)-1H-indol-2-yl]methyl]benzoic acid] | 56 | 6.03 | 63 | 6.39 |
| CC(C)(C)c1cccc(S(=O)(=O)n2c(Cc3ccc(-c4n[nH]c(=O)o4)cc3)cc3cc(C(F)(F)F)ccc32)c1 [Example 226, 5-[4-[[1-[[3-(1,1-dimethylethyl)phenyl]sulfonyl]-5-(trifluoromethyl)-1H-indol-2-yl]methyl]-phenyl]-3H-[1,3,4]oxadiazol-2-one] | 70 | < 5.00 | 82 | 6.33 |
| CC(C)(C)c1ccc(S(=O)(=O)n2c(Cc3ccc(C(=O)O)cc3)cc3cc(Cl)ccc32)cc1 [Example 155, 4-[[1-[4-tert-butyl-phenylsulfonyl]-5-(chloro)-1H-indol-2-yl]methyl]benzoic acid] | 59 | 6.33 | 69 | 6.58 |
| CCCOc1ccc(S(=O)(=O)n2c(Cc3ccc(C(=O)O)cc3)cc3cc(C(F)(F)F)ccc32)cc1 [Example 123, 4-[[1-[4-propoxy-phenylsulfonyl]-5-(trifluoromethyl)-1H-indol-2-yl]methyl]benzoic acid] | 36 | 6.19 | 60 | 6.66 |
| Cc1cccc(S(=O)(=O)n2c(Cc3ccc(C(=O)O)cc3)cc3cc(C(F)(F)F)ccc32)c1 [Example 141, 4-[[1-[(3-methylphenyl)sulfonyl]-5-(trifluoromethyl)-1H-indol-2-yl]methyl]benzoic acid] | 30 | 6.44 | 41 | 6.55 |
| Cc1cc(C(=O)O)ccc1Cc1cc2cc(C(F)(F)F)ccc2n1S(=O)(=O)c1cccc(C(C)(C)C)c1 [Example 197, 4-[[1-[[3-(1,1-dimethylethyl)phenyl]sulfonyl]-5-trifluoromethyl-1H-indol-2-yl]methyl]-3-methyl-benzoic acid] | 52 | 6.23 | 68 | 6.56 |
| CC(C)(C)c1cccc(S(=O)(=O)n2c(Cc3ccc(-c4noc(=O)[nH]4)cc3)cc3cc(C(F)(F)F)ccc32)c1 [Example 222, 3-[[4-[1-[[3-(1,1-dimethylethyl)phenyl]sulfonyl]-5-(trifluoromethyl)-1H-indol-2-yl]methyl]-phenyl]-4H-[1,2,4]oxadiazol-5-one] | 55 | 6.17 | 62 | 6.44 |
| O=C(O)c1ccc(Cc2cc3cc(Cl)ccc3n2S(=O)(=O)c2ccc(F)c(F)c2)cc1 [Example 153, 4-[[1-[3-fluoro-4-fluoro-phenylsulfonyl]-5-(chloro)-1H-indol-2-yl]methyl]benzoic acid] | 63 | 5.86 | 85 | 6.07 |
| COc1cccc(S(=O)(=O)n2c(Cc3ccc(C(=O)O)cc3)cc3cc(Cl)ccc32)c1 [Example 166, 4-[[1-[3-methoxy-phenylsulfonyl]-5-(chloro)-1H-indol-2-yl]methyl]benzoic acid] | 27 | 5.97 | 50 | 6.17 |
| CC(C)(C)c1cccc(S(=O)(=O)n2c(Cc3cncc(C(=O)O)c3)cc3cc(C(F)(F)F)ccc32)c1 [Example 204, 3-[[1-[[3-(1,1-dimethylethyl)-phenyl]sulfonyl]-5-trifluoromethyl-1H-indol-2-yl]methyl]-5-pyridine carboxylic acid] | 93 | 6.71 | 102 | 6.97 |
| CCCCCc1ccc(S(=O)(=O)n2c(Cc3ccc(C(=O)O)cc3)cc3cc(C(F)(F)F)ccc32)cc1 [Example 140, 4-[[1-[4-pentyl-benzenesulfonyl]-5-(trifluoromethyl)-1H-indol-2-yl]methyl]benzoic acid] | 22 | 6.41 | 46 | 6.43 |
| COC(=O)c1ccc(Cc2cc3cc(C(F)(F)F)ccc3n2S(=O)(=O)c2ccc(C(C)C)cc2)cc1F [Example 1, 2-fluoro-4-[[1-[[4-(1-methylethyl)phenyl]sulfonyl]-5-(trifluoromethyl)-1H-indol-2-yl]methyl]benzoic acid, methyl ester] | 60 | 6.14 | 65 | 6.39 |
| O=C(O)c1ccc(Cc2cc3cc(Cl)ccc3n2S(=O)(=O)c2cc3ccccc3o2)cc1 [Example 177, 4-[[1-[benzofuran-2-sulfonyl]-5-(chloro)-1H-indol-2-yl]methyl]benzoic acid] | 17 | < 5.00 | 39 | < 5.00 |
| COc1cc(Cc2cc3cc(Cl)ccc3n2S(=O)(=O)c2ccc(C(C)C)cc2)ccc1C(=O)O [Example 98, 4-[[5-chloro-1-[[4-(1-methylethyl)phenyl]sulfonyl]-1H-indol-2-yl]methyl]-2-methoxybenzoic acid] | 8 | < 5.00 | 64 | 5.67 |
| Cn1nccc1-c1cccc(S(=O)(=O)n2c(Cc3ccc(C(=O)O)cc3)cc3cc(C(F)(F)F)ccc32)c1 [Example 20, 4-[[1-[[3-(1-methyl-1H-pyrazol-5-yl)phenyl]sulfonyl]-5-(trifluoromethyl)-1H-indol-2-yl]methyl]benzoic acid] | 44 | 6.21 | 54 | 6.53 |
| CC(C)(C)c1cccc(S(=O)(=O)n2c(Cc3csc(C(=O)O)c3)cc3cc(C(F)(F)F)ccc32)c1 [Example 70, 4-[[1-[[3-(1,1-dimethylethyl)-phenyl]sulfonyl]-5-trifluoromethyl-1H-indol-2-yl]methyl]-thiophene-2-carboxylic acid] | 91 | 8.10 | 94 | 8.30 |
| O=C(O)c1ccc(Cc2cc3cc(Cl)ccc3n2S(=O)(=O)c2ccc(C(F)(F)F)cc2)cc1 [Example 158, 4-[[1-[4-trifluoro-phenylsulfonyl]-5-(chloro)-1H-indol-2-yl]methyl]benzoic acid] | 53 | 5.90 | 66 | 6.30 |
| O=C(O)c1ccc(Cc2cc3cc(C(F)(F)F)ccc3n2S(=O)(=O)c2ccc(F)c(Cl)c2)cc1 [Example 15, 4-[[1-[(3-chloro-4-fluorophenyl)sulfonyl]-5-(trifluoromethyl)-1H-indol-2-yl]methyl]benzoic acid] | 54 | 6.13 | 66 | 6.43 |
| CC(C)(C)c1cccc(S(=O)(=O)n2c(Cc3ccc(-c4nn[nH]n4)cc3)cc3cc(C(F)(F)F)ccc32)c1 [Example 221, 4-[1-[3-(1,1-dimethylethyl)phenyl]sulfonyl]-5-(trifluoromethyl)-1H-indol-2H-tetrazol-5-yl-benzyl] | 57 | 6.79 | 66 | 6.72 |
| COc1ccc(S(=O)(=O)n2c(Cc3ccc(C(=O)O)cc3)cc3cc(Cl)ccc32)cn1 [Example 169, 4-[[5-chloro-1-[(6-methoxy-3-pyridinyl)sulfonyl]-1H-indol-2-yl]methyl]benzoic acid] | 28 | 5.60 | 46 | 5.99 |
| O=C(O)c1ccc(Cc2cc3cc(C(F)(F)F)ccc3n2S(=O)(=O)c2ccc(Oc3ccccc3)nc2)cc1 [Example 130, 4-[[1-[(6-phenoxy-3-pyridinyl)sulfonyl]-5-(trifluoromethyl)-1H-indol-2-yl]methyl]benzoic acid] | 22 | 5.77 | 30 | 6.46 |
| CC(C)(C)c1cccc(S(=O)(=O)n2c(Cc3ccc(C=C4SC(=S)NC4=O)cc3)cc3cc(C(F)(F)F)ccc32)c1 [Example 223] | 30 | 5.47 | 72 | 5.88 |
| CC(C)c1ccc(S(=O)(=O)n2c(Cc3ccc(C(=O)O)s3)cc3cc(C(F)(F)F)ccc32)cc1 [Example 71, 5-[[1-[[4-(1-methylethyl)-phenyl]sulfonyl]-5-trifluoromethyl-1H-indol-2-yl]methyl]-thiophene-2-carboxylic acid] | 82 | 7.02 | 61 | 7.33 |
| COC(=O)c1ccc(Cc2cc3cccc(F)c3n2S(=O)(=O)c2cccc(C(C)(C)C)c2)cc1 [Example 113, 4-[[1-[[3-(1,1-dimethylethyl)phenyl]sulfonyl]-7-fluoro-1H-indol-2-yl]methyl]benzoic acid, methyl ester] | 97 | 5.73 | 103 | < 5.00 |
